Assay results: PMC9791066, “Investigations into the antibacterial effects and potential mechanism of gambogic acid and neogambogic acid” (Frontiers in Microbiology, 2022)
Converted amounts (≈) assume the structure as drawn. Read-outs that look alike come from different tables or passages of the source.

Columns and labels:
EfaUPPS (R42A) = target: T1, EfaUPPS (R42A) (Enterococcus faecalis, UniProt Q831K9, R48A); assay: Microscale thermophoresis binding assay, EfaUPPS R42A
T1 construct: His tag; made in house; host or cells: E. coli BL21(DE3)
T1 sequence (Q831K9 whole entry R48A): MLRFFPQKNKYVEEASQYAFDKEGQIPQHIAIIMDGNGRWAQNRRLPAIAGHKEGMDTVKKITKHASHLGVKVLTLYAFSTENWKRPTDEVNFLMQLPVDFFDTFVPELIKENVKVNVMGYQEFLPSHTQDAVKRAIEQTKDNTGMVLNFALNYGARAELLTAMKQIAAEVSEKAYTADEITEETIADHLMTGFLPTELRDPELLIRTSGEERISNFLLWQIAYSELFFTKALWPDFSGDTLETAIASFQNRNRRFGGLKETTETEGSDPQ
Method: (§1) To characterize the binding affinity between EfaUPPS and GA or NGA, the MST binding assay was performed as previously described ([Lin et al., 2020]). In brief, His-tagged EfaUPPS and site-directed mutated EfaUPPS were labeled with the NT- 647-NHS dye using the Monolith NTTM Protein Labeling Kit RED-NHS (NanoTemper Technologies). Two-fold serially diluted GA or NGA was mixed with 10 nM of labeled EfaUPPS or its derivatives in 10 μl of binding buffer (137 mM NaCl, 2.7 mM KCl, 10 mM Na2HPO4, 1.8 mM KH2PO4, and 0.05% Tween-20, pH 7.8), incubated for 15 min, at room temperature. And then, loaded the mixtures into NT.115 premium coated capillaries (NanoTemper Technologies). MST trace signals were collected from the IR laser on to off for about 20 s, under the 5% LED power and high MST power mode. The change of molecular thermophoresis was monitored by standardized fluorescence value Fnorm, and the binding curve was plotted according to the values of Fnorm. The formed complex affinity was analyzed by MO Affinity Analysis software version 2.3. Apparent dissociation constants (Kd) were calculated using nonlinear fitting assuming one specific binding site with the GraphPad Prism 7 software with the following formula: Y = B^∗Max X/KD + X.
(§2) (^∗ where BMax is the maximum theoretical specific binding; here BMax = 1).

WT EfaUPPS = target: T2, WT EfaUPPS (Enterococcus faecalis, UniProt Q831K9); assay: Microscale thermophoresis binding assay, wild-type EfaUPPS
T2 construct: His tag; made in house; host or cells: E. coli BL21(DE3)
T2 sequence (Q831K9 whole entry): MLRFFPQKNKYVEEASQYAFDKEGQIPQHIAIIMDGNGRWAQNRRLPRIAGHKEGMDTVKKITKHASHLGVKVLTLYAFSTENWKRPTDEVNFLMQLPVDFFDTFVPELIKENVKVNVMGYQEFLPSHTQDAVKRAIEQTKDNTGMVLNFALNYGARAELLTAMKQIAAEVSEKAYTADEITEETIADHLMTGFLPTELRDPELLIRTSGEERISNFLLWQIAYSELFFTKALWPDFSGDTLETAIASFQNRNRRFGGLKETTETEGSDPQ
Method: as §1, §2

EfaUPPS = target: T3, EfaUPPS (Enterococcus faecalis, UniProt Q831K9); assay: Compound/substrate-UPPS binding competition experiment; assay type: biochemical; details: 0-20 μM FPP, 1/2/5 μM compound
T3 construct: His tag; made in house; host or cells: E. coli BL21(DE3)
T3 sequence (Q831K9 whole entry): as above
Method: The compound/substrate-UPPS binding competition experiment was performed as the above descriptions. The difference is that the reaction buffer containing 35 μM IPP, different concentrations of FPP ranged from 0–20 μM, and in the presence of 0/1/2/5 μM GA/NGA, respectively. Data were plotted with competitive inhibition model using GraphPad Prism7.

EfaUPPS (L146A) = target: T4, EfaUPPS (L146A) (Enterococcus faecalis, UniProt Q831K9, L152A); assay: UPPS inhibition assay, EfaUPPS L146A mutant; assay type: biochemical; details: for effect of mutation on inhibitory effect of compound on EfaUPPS enzyme activity: L146A mutant compared with wild-type; for IC50 fold higher than that of the wild-type: L146A mutant vs wild-type (~3 μM)
T4 construct: His tag; made in house; host or cells: E. coli BL21(DE3)
T4 sequence (Q831K9 whole entry L152A): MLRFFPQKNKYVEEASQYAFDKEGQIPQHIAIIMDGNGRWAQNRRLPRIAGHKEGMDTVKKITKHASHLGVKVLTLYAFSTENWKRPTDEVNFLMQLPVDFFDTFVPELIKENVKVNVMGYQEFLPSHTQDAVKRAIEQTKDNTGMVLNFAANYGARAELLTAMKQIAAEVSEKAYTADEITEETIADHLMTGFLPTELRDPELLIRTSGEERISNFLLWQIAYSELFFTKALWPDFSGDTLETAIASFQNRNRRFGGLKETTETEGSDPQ
Method: The EfaUPPS site-directed mutagenesis was generated using QuikChange site-directed mutagenesis kit (Agilent) according to the manufacturer’s instructions. The purification of site-directed mutation was using a similar strategy as described above.
The UPPS inhibition assay was carried out by measuring the fluorescence of the reaction mixture in a black 96-well microtiter plate (Corning, United States). […] After the indicated incubation period, the reaction was terminated by the addition of 10 μl of 0.5 M EDTA solution. Transferred 50 μl of the reaction mixture into a new 96-well microtiter plate, and quenched with an equal volume of Master Reaction Mix (Pyrophosphate Assay Kit, Sigma-Aldrich, USA) for 30 min. The UPPS inhibitory activity was performed by calculating the fluorescence percentage through determining the fluorescence absorbance of reaction mixture at 316 and 456 nm. Data of UPPS inhibitory activities were plotted versus compound concentrations on a semi-log scale using GraphPad Prism7. All the results were the means of at least three biological replicates.

[1] = tested on: Staphylococcus aureus ATCC29213; assay: MIC, microtiter broth dilution; assay type: cell-based; details: Staphylococcus aureus
Method: (§3) Antibacterial activities were performed by examining the minimal inhibitory concentrations (MICs), which was determined by a microtiter broth dilution method as previously described ([Cotsonas King and Wu, 2009]), with minor modifications. Briefly, 96-well plates (Corning) were inoculated with 100 μl of LB broth per well containing 7 × 10^5 CFU/mL bacteria, followed by adding 100 μl of LB broth containing two-fold serial dilutions of the test compounds. […] After 18 h of incubation, the MIC was determined to be the lowest concentration without visible bacterial growth. The results were the averages of at least three biological replicates.

[2] = tested on: Escherichia coli ATCC25922; assay: MIC, microtiter broth dilution; assay type: cell-based; details: Escherichia coli
Method: as §3

[3] = tested on: Enterococcus faecalis ATCC29212; assay: MIC, microtiter broth dilution; assay type: cell-based; details: Enterococcus faecalis
Method: as §3

[4] = tested on: Listeria monocytogenes ATCC19117; assay: MIC, microtiter broth dilution; assay type: cell-based; details: Listeria monocytogenes
Method: as §3

EfaUPPS (L91A) = target: T5, EfaUPPS (L91A) (Enterococcus faecalis, UniProt Q831K9, L97A); assay: Microscale thermophoresis binding assay, EfaUPPS L91A; details: MST, no binding
T5 construct: His tag; made in house; host or cells: E. coli BL21(DE3)
T5 sequence (Q831K9 whole entry L97A): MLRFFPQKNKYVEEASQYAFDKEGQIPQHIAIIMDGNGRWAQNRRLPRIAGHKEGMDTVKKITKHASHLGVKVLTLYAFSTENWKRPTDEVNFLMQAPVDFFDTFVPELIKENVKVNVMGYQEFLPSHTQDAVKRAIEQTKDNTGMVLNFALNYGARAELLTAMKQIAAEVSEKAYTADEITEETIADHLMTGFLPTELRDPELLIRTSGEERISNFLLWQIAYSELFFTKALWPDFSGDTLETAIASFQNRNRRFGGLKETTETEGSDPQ
Method: as §1, §2

E. faecalis infection = assay: E. faecalis infected mouse model; assay type: in vivo, C57BL/6 J mice; details: oral dose (40 μM), 19 days
Method: All animal studies had been reviewed and approved by the Animal Ethical and Welfare Committee of Nanjing University of Chinese Medicine. 8-week-old male C57BL/6 J mice were housed in groups of four mice per cage in a 12/12-h day light cycle with free access to food and water under conditions of controlled humidity (50 ± 5%) and temperature (22 ± 2°C). Mice were adaptively raised for a week before experiments. To explore the effects of GA and NGA on E. faecalis, the mice were randomly divided into four groups including control, E. faecalis, E. faecalis + GA and E. faecalis + NGA. Mice received an oral dose (40 μM) of GA or NGA from 30 min after E. faecalis (1 × 10^10 CFU) treatment for 19 days to sacrifice. The body weight of the mice was monitored daily. Afterwards mice spleens were collected and spleen weight was measured upon being sacrificed.
Spleen tissue sections of mice were fixed in 4% paraformaldehyde, dehydrated in alcohol, embedded in paraffin and then sliced into thin 5 μm sections. The tissues were then stained with hematoxylin & eosin (H&E). The tissue images were observed under an inverted microscope (Vectra 3.0, PerkinElmer, United States).
Retro-orbital blood was collected from the mice in asepsis tubes before dissection. The blood was centrifuged at 3500 g for 20 min to extract serum, which was stored at −20°C awaiting subsequent analyses. TNF-α-levels in serum was measured by ELISA according to the instructions of the manufacturer (eBioscience, United States).
Total RNA was extracted from the spleen of mice, and then the cDNA was synthesized with HiScript® II Q RT SuperMix for qPCR (Vazyme, China). qPCR was performed using the LightCycler®96 (Roche, Swiss). The qPCR primers of TNF-α (Forward: 5’-[…]-3′ and Reverse: 5’-[…]-3′) were designed and synthesized by GENERAY Biotechnology (Shanghai, China). GAPDH was used as the reference gene.

SMILES	Kd (EfaUPPS (R42A))	competition with FPP for binding to EfaUPPS (EfaUPPS)	IC50 (EfaUPPS (L146A))	effect of mutation on inhibitory effect of compound on EfaUPPS enzyme activity (EfaUPPS (L146A))	IC50 fold higher than that of the wild-type (EfaUPPS (L146A))	Kd (EfaUPPS (L91A))	body weight of E. faecalis infection mice (E. faecalis infection)	spleen inflammation (H&E spleen slides) (E. faecalis infection)	splenomegaly (spleen weight) (E. faecalis infection)	also measured
CC(C)=CCC[C@]1(C)CC(O)c2c(O)c3c(c(CC=C(C)C)c2O1)O[C@]12C(=C[C@@H]4C[C@H]1C(C)(C)O[C@@]2(C/C=C(/C)C(=O)O)C4=O)C3=O (some centres unmarked) [NGA, neogambogic acid]	62.9 ± 25.4 µM	compete with FPP	~30 µM	significantly reduced	about 10 fold	> 50000 µM	no observable effect	reduced signs of inflammation	significantly relieved splenomegaly	Kd fold higher than that of the wild-type (EfaUPPS (R42A); R42A vs wild-type): about 10 fold; Kd (WT EfaUPPS): 5.61 ± 2.16 µM; Kd fold lower than that for GA (WT EfaUPPS; WT EfaUPPS, NGA vs GA): about 5 fold; MIC ([1]; ATCC29213, 18 h): 4 µg/mL (≈ 6.18 µM); MIC ([2]; ATCC25922, 18 h): > 64 µg/mL; MIC ([3]; ATCC29212, 18 h): 2 µg/mL (≈ 3.09 µM); MIC ([4]; ATCC19117, 18 h): 4 µg/mL (≈ 6.18 µM); TNF-α mRNA in spleen (qPCR) (E. faecalis infection): significant downregulation; TNF-α-levels in serum (ELISA) (E. faecalis infection; vs E. faecalis group): significantly reduced
CC(C)=CCC[C@]1(C)C=Cc2c(O)c3c(c(CC=C(C)C)c2O1)O[C@]12C(=C[C@@H]4C[C@H]1C(C)(C)O[C@@]2(C/C=C(/C)C(=O)O)C4=O)C3=O [GA, gambogic acid]	40.5 ± 17.2 µM	compete with FPP	~30 µM	significantly decreased	about 10 fold	> 50000 µM	no observable effect	reduced signs of inflammation	significantly relieved splenomegaly	Kd (WT EfaUPPS; MST, WT EfaUPPS, read-out: Kd): 29 ± 8.03 µM; MIC ([1]; ATCC29213, LB broth, 18 h, read-out: MIC): 2 µg/mL (≈ 3.18 µM); MIC ([2]; ATCC25922, LB broth, 18 h, read-out: MIC): > 64 µg/mL; MIC ([3]; ATCC29212, LB broth, 18 h, read-out: MIC): 2 µg/mL (≈ 3.18 µM); MIC ([4]; ATCC19117, LB broth, 18 h, read-out: MIC): 4 µg/mL (≈ 6.36 µM)
